# Earlier results in patent US20150174190A1, “Formulation Against General, Physical, And/Or Mental Fatigue” (priority 2013, published 2015).
# System: patients that suffered from fatigue
structure (smiles),measurement,value
CC(C)[C@H](N)C(=O)OCC(CO)OCn1cnc2c(=O)nc(N)[nH]c21 (stereo partly shown) [Valganciclovir],Effect on physical and cognitive performance,improved physical and cognitive performance
